pIC50: −log10 of the molar value. Read-outs that look alike come from different tables or passages of the source.
Molecular target: T1, rat brain N-type calcium channel subunits (α1B+α2δ+β1b cDNA subunits) (Rattus norvegicus, UniProt Q02294)
T1 construct: expressed in transfected cells; host or cells: HEK 293
Test: N-type calcium channel block, whole cell patch clamp in transfected HEK 293 cells
Format: cell-based
Conditions: holding potential −80 mV to +10 mV
Method: N-type calcium channel blocking activity was assayed in human embryonic kidney cells, HEK 293, stably transfected with the rat brain N-type calcium channel subunits (α1B+α2δ+β1b cDNA subunits). Alternatively, N-type calcium channels (α1B+α2δ+β1b cDNA subunits), L-type channels (α1C+α2δ+β1b cDNA subunits) and P/Q-type channels (α1A+α2δ+β1b cDNA subunits) were transiently expressed in HEK 293 cells. Briefly, cells were cultured in Dulbecco's modified eagle medium (DMEM) supplemented with 10% fetal bovine serum, 200 U/ml penicillin and 0.2 mg/ml streptomycin at 37° C. with 5% CO2. At 85% confluency cells were split with 0.25% trypsin/1 mM EDTA and plated at 10% confluency on glass coverslips. At 12 hours the medium was replaced and the cells transiently transfected using a standard calcium phosphate protocol and the appropriate calcium channel cDNA's. Fresh DMEM was supplied and the cells transferred to 28° C./5% CO2. Cells were incubated for 1 to 2 days prior to whole cell recording.
Whole cell patch clamp experiments were performed using an Axopatch 200B amplifier (Axon Instruments, Burlingame, Calif.) linked to a personal computer equipped with pCLAMP software. The external and internal recording solutions contained, respectively, 5 mM BaCl2, 10 mM MgCl2, 10 mM HEPES, 40 mM TEACl, 10 mM glucose, 87.5 mM CsCl (pH 7.2) and 108 mM CsMS, 4 mM MgCl2, 9 mM EGTA, 9 mM HEPES (pH 7.2). Currents were typically elicited from a holding potential of −80 mV to +10 mV using Clampex software (Axon Instruments). Typically, currents were first elicited with low frequency stimulation (0.067 Hz) and allowed to stabilize prior to application of the compounds. The compounds were then applied during the low frequency pulse trains for two to three minutes to assess tonic block, and subsequently the pulse frequency was increased to 0.2 Hz to assess frequency dependent block. Data were analyzed using Clampfit (Axon Instruments) and SigmaPlot 4.0 (Jandel Scientific).

[1] = low frequency stimulation 0.067 Hz (tonic block), 5 mM BaCl2, read-out: IC50 @ 0.067 Hz
[2] = pulse frequency 0.2 Hz (frequency dependent block), 5 mM BaCl2, read-out: IC50 @ 0.2 Hz

T1 sequence (Q02294 whole entry): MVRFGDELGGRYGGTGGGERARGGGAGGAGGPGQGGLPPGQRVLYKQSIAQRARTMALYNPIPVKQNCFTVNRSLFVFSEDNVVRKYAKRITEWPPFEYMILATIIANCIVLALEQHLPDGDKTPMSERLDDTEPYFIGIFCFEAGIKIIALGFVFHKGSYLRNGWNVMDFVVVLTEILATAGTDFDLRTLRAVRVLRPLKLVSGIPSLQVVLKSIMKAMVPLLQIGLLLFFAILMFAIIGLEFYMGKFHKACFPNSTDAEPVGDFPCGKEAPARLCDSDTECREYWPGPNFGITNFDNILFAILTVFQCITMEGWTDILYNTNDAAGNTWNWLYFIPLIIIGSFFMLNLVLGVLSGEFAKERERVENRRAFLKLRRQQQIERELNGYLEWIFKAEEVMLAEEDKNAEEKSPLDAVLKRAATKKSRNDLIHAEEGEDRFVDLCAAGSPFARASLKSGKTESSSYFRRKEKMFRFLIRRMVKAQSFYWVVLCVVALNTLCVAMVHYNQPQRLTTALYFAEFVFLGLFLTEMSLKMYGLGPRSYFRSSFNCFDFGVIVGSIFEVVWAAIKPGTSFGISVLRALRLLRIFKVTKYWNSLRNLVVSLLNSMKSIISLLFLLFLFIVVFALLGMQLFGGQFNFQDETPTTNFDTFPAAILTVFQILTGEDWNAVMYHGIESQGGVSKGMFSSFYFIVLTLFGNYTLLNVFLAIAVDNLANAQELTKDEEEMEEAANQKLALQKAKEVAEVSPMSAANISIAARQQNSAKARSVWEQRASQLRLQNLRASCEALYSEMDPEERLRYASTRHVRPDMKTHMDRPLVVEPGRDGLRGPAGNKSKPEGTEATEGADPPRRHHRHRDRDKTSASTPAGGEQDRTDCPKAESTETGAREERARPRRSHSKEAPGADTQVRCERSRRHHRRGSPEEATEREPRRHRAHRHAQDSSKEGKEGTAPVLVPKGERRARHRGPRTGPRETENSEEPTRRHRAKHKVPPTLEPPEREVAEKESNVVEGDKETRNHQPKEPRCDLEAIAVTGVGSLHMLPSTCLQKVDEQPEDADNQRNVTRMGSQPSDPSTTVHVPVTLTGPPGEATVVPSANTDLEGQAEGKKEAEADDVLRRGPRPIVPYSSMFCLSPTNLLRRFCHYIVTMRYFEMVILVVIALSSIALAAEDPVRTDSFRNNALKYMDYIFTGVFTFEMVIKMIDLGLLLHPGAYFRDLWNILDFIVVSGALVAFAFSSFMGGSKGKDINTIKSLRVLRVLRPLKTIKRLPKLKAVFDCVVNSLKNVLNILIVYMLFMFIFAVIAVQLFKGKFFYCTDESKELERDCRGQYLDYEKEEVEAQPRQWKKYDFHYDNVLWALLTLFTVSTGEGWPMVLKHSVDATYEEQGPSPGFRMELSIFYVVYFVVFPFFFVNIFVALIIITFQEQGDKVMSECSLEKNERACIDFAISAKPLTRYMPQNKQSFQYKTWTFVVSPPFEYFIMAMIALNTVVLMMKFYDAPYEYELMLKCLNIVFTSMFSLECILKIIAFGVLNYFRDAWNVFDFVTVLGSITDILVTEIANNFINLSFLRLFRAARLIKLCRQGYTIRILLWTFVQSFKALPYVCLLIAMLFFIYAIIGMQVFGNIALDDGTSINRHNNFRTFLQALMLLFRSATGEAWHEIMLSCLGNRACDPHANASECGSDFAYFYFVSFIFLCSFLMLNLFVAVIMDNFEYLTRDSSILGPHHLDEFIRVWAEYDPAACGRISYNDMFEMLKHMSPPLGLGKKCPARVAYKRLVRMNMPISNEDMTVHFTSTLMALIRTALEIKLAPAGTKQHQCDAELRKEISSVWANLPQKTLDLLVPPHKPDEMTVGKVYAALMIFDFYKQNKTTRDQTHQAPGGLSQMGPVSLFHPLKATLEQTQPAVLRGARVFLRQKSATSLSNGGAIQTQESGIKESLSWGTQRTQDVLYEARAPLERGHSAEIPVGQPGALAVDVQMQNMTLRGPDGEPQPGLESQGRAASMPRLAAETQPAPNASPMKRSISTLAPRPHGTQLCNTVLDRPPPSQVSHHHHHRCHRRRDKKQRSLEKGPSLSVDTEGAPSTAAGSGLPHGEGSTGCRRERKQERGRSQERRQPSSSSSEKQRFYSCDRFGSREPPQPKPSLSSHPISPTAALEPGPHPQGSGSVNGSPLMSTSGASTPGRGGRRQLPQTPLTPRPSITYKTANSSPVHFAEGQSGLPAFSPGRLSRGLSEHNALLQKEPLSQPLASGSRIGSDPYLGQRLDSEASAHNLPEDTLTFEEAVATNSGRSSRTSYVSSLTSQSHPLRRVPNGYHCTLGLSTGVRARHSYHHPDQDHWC
T1 sequence (P54290 25-944 partner limits assumed): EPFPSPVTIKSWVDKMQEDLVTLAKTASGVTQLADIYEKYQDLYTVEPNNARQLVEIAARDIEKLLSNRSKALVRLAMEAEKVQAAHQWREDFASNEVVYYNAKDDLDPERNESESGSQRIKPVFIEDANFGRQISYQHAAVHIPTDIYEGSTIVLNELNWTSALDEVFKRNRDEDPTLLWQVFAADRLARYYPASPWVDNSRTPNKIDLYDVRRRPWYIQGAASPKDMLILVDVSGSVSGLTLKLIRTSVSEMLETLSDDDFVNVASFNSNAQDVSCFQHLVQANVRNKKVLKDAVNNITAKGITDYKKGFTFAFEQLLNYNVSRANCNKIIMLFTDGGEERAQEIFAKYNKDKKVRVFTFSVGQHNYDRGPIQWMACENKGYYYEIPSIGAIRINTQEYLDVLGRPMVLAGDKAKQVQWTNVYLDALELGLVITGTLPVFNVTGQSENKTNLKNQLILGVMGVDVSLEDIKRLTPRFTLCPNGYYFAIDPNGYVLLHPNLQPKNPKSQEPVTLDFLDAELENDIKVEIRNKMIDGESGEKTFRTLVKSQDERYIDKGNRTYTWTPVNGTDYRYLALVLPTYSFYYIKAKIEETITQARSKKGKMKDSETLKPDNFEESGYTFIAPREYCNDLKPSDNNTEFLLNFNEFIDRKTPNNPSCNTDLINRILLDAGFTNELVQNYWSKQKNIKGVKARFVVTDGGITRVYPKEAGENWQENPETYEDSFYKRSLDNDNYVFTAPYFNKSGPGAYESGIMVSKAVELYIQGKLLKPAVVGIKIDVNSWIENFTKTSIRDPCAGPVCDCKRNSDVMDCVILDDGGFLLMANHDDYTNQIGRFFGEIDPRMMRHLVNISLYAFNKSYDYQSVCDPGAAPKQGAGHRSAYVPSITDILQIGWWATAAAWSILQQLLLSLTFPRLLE
T1 sequence (P54290 945-1091 partner limits assumed): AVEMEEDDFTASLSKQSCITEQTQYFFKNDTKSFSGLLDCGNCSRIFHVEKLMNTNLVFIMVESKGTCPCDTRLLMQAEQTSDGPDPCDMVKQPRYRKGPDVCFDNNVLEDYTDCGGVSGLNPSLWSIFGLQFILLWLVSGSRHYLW
T1 sequence (P54283 whole entry partner): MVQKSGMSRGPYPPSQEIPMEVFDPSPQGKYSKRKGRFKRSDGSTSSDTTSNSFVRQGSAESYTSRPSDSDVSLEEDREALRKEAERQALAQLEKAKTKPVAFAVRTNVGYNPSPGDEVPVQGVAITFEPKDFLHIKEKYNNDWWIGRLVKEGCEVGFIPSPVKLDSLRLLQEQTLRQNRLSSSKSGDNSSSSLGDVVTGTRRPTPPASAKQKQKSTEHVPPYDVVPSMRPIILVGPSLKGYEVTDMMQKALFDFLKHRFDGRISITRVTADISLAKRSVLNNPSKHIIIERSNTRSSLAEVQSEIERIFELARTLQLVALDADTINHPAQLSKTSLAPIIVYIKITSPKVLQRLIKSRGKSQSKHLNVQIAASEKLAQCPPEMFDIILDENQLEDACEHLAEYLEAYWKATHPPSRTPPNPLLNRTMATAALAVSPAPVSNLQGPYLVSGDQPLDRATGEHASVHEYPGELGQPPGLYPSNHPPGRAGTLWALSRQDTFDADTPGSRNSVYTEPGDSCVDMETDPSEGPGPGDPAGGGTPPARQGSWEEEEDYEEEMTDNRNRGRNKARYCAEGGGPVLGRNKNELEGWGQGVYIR

Structure (SMILES)	pIC50 [1]	pIC50 [2]
CN1CCN(C(=O)C2(c3ccccc3)CCN(C(=O)NC(c3ccccc3)c3ccccc3)CC2)CC1 [Compound 38, N-benzhydryl-4-(4-methylpiperazine-1-carbonyl)-4-phenylpiperidine-1-carboxamide]	< 5.64	5.85
O=C(NC(c1ccccc1)c1ccccc1)N1CCC(CN2CCCCC2)CC1 [Compound 41, N-benzhydryl-4-(piperidin-1-ylmethyl)piperidine-1-carboxamide]	5.28	5.46
Cc1ccccc1C(CC(=O)N1CCC(CN2CCCCC2)CC1)c1ccccc1C [Compound 42, 1-(4-(piperidin-1-ylmethyl)piperidin-1-yl)-3,3-di-o-tolylpropan-1-one]	5.18	5.61
O=C(C[S+]([O-])C(c1ccccc1)c1ccccc1)N1CCC(CN2CCCCC2)CC1 (centres unmarked) [Compound 44, 2-(benzhydrylsulfinyl)-1-(4-(piperidin-1-ylmethyl)piperidin-1-yl)ethanone]	5.08	5.39
Cc1ccccc1C(CC(=O)N1CCC(CN2CCCCC2)(c2ccccc2)CC1)c1ccccc1C [Compound 46, 1-(4-phenyl-4-(piperidin-1-ylmethyl)piperidin-1-yl)-3,3-di-o-tolylpropan-1-one]	6.49	6.60
O=C(C[S+]([O-])C(c1ccccc1)c1ccccc1)N1CCC(CN2CCCCC2)(c2ccccc2)CC1 (centres unmarked) [Compound 48, 2-(benzhydrylsulfinyl)-1-(4-phenyl-4-(piperidin-1-ylmethyl)piperidin-1-yl)ethanone]	5.90	6.03
O=C(CC(c1ccccc1)c1ccccc1)N1CCC(C(c2ccccc2)N2CCCCC2)CC1 (centres unmarked) [Compound 50, 3,3-diphenyl-1-(4-(phenyl(piperidin-1-yl)methyl)piperidin-1-yl)propan-1-one]	5.64	5.82
CC1CN(C(c2ccccc2)C2CCN(C(=O)CC(c3ccccc3)c3ccccc3)CC2)CC(C)N1 (centres unmarked) [Compound 55, 1-(4-((3,5-dimethylpiperazin-1-yl)(phenyl)methyl)piperidin-1-yl)-3,3-diphenylpropan-1-one]	6.06	6.38
Cc1ccccc1C(CC(=O)N1CCC(C(c2ccccc2)N2CCN(C)CC2)CC1)c1ccccc1C (centres unmarked) [Compound 56, 1-(4-((4-methylpiperazin-1-yl)(phenyl)methyl)piperidin-1-yl)-3,3-di-o-tolylpropan-1-one]	6.57	6.82
Cc1ccccc1C(CC(=O)N1CCC(CN2CCN(C(C)(C)C)CC2)CC1)c1ccccc1C [Compound 67, 1-(4-((4-tert-butylpiperazin-1-yl)methyl)piperidin-1-yl)-3,3-di-o-tolylpropan-1-one]	6.28	6.60
Cc1ccccc1C(CC(=O)N1CCC(C(=O)N2CCN(C(C)(C)C)CC2)CC1)c1ccccc1C [Compound 79, 1-(4-(4-tert-butylpiperazine-1-carbonyl)piperidin-1-yl)-3,3-di-o-tolylpropan-1-one]	5.83	6.03
CC(C)(C)N1CCN(C(=O)C2CCN(C(=O)NC(c3ccccc3)c3ccccc3)CC2)CC1 [Compound 80, N-benzhydryl-4-(4-tert-butylpiperazin-1-carbonyl)piperidine-1-carboxamide]	4.93	
CC(C)(C)N1CCN(C(=O)C2CCN(C(=O)CC(c3ccc(F)cc3)c3ccc(F)cc3)CC2)CC1 [Compound 81, 1-(4-(4-tert-butylpiperazine-1-carbonyl)piperidin-1-yl)-3,3-bis(4-fluorophenyl)propan-1-one]	5.36	5.61

Now from value to compound:

pIC50 [1]	pIC50 [2]	Structure (SMILES)
6.42	6.54	Cc1ccccc1C(CC(=O)N1CCC(C(=O)N2CCN(C)CC2)(c2ccccc2)CC1)c1ccccc1C [Compound 37, 1-(4-(4-methylpiperazine-1-carbonyl)-4-phenylpiperidin-1-yl)-3,3-di-o-tolylpropan-1-one]
5.27	5.28	O=C(CNC(c1ccccc1)c1ccccc1)N1CCC(CN2CCCCC2)CC1 [Compound 43, 2-(benzhydrylamino)-1-(4-(piperidin-1-ylmethyl)piperidin-1-yl)ethanone]
6.20	6.35	O=C(COC(c1ccccc1)c1ccccc1)N1CCC(C(c2ccccc2)N2CCCCC2)CC1 (centres unmarked) [Compound 52]
5.63	5.88	CN1CCN(C(c2ccccc2)C2CCN(C(=O)CC(c3ccccc3)c3ccccc3)CC2)CC1 (centres unmarked) [Compound 54, 1-(4-((4-methylpiperazin-1-yl)(phenyl)methyl)piperidin-1-yl)-3,3-diphenylpropan-1-one]
6.03	6.36	Cc1ccccc1C(CC(=O)N1CCC(C(c2ccccc2)N2CC(C)NC(C)C2)CC1)c1ccccc1C (centres unmarked) [Compound 57, 1-(4-((3,5-dimethylpiperazin-1-yl)(phenyl)methyl)piperidin-1-yl)-3,3-di-o-tolylpropan-1-one]
5.25		O=C(NC(c1cccc(F)c1)c1cccc(F)c1)N1CCC(CN2CCCCC2)CC1 [Compound 60]
5.66	5.91	CC(C)(C)N1CCN(CC2CCN(C(=O)CC(c3ccccc3)c3ccccc3)CC2)CC1 [Compound 66, 1-(4-((4-tert-butylpiperazin-1-yl)methyl)piperidin-1-yl)-3,3-diphenylpropan-1-one]
6.38	6.54	CC(C)(C)N1CCN(CC2CCN(C(=O)CCCCC(c3ccccc3)c3ccccc3)CC2)CC1 [Compound 74, 1-(4-((4-tert-butylpiperazin-1-yl)methyl)piperidin-1-yl)-6,6-diphenylhexan-1-one]
< 5.19	< 5.48	CC(C)(C)N1CCN(C(=O)C2CCN(C(=O)CC(c3ccccc3)c3ccccc3)CC2)CC1 [Compound 78, 1-(4-(4-tert-butylpiperazine-1-carbonyl)piperidin-1-yl)-3,3-diphenylpropan-1-one]
5.59	4.81	CC(C)(C)N1CCN(C(=O)C2CCN(C(=O)COC(c3ccc(F)cc3)c3ccc(F)cc3)CC2)CC1 [Compound 82, 2-(bis(4-fluorophenyl)methoxy)-1-(4-(4-tert-butylpiperazine-1-carbonyl)piperidin-1-yl)ethanone]
5.52	5.80	COc1ccccc1C(CC(=O)N1CCC(C(c2ccccc2)N2CC(C)NC(C)C2)CC1)c1ccccc1OC (centres unmarked) [Compound 83, 1-(4-((3,5-dimethylpiperazin-1-yl)(phenyl)methyl)piperidin-1-yl)-3,3-bis(2-methoxyphenyl)propan-1-one]
5.16	5.57	COc1ccccc1C(CC(=O)N1CCC(C(=O)N2CCN(C(C)(C)C)CC2)CC1)c1ccccc1OC [Compound 87, 1-(4-(4-tert-butylpiperazine-1-carbonyl)piperidin-1-yl)-3,3-bis(2-methoxyphenyl)propan-1-one]
5.85	6.10	Cc1ccccc1C(CC(=O)N1CCC(C(c2ccccc2)N2CCN(C(C)(C)C)CC2)CC1)c1ccccc1C (centres unmarked) [Compound 101, 1-(4-((4-tert-butylpiperazin-1-yl)(phenyl)methyl)piperidin-1-yl)-3,3-di-o-tolylpropan-1-one]

Reference: patent publication US20100168103A1, “DIARYL PIPERIDINE COMPOUNDS AS CALCIUM CHANNEL BLOCKERS” (NEUROMED PHARMACEUTICALS LTD., priority 2006, published 2010)
